In patent publication US20220296583A1, “COMPOSITIONS AND METHODS FOR TREATMENT OF OVARIAN AND BREAST CANCER” (Board of Regents, The University of Texas System, priority 2021, published 2022):
pIC50: −log10 of the molar value. Where two headings read alike, the source gives them in different places.

Experiments:
SKOv3 xenograft [1] = assay: SKOv3 subcutaneous xenograft, Compound B, carboplatin and paclitaxel; assay type: in vivo, mice; conditions: SKOv3 s.c.; 6 weeks; Compound B 40 mg/kg
Protocol: After treatment as indicated in (A) for three weeks, mice were weighed, and intraperitoneal nodules were excised and weighed. […] Mice were treated with single, double, or triple agents for 6 weeks. Tumor was measured once a week until the tumor burden in control group reached maximum allowance. The graphs indicate the mean±standard deviation. Statistical significance is indicated by *p<0.05, **p<0.01, and ***p<0.0001.
Six-week-old female athymic nu/nu mice were purchased from Envigo. Experiments were reviewed and all procedures were performed according to an animal protocol approved by the Institutional Animal Care and Use Committee of UT MD Anderson Cancer Center. […] Carboplatin was administrated i.p. once a week at a dose of 25 mg/kg. […] Carboplatin was treated at a dose of 30 mg/kg once a week for six weeks. […] At end of six weeks, the mice were sacrificed by CO2. The mice were dissected immediately after death and the tumors were collected and weighed.
OVCAR8 cells were injected intraperitoneally (ip) into nu/nu mice. Treatment started 7 days post injection. […] At the conclusion of the treatment, the mice were sacrificed, and the tumor was dissected and weighed (FIG. 23A). […] The tumor volume was measured at indicated time points (FIG. 23D).

[2] = test system: SIK2-expressed SKOV3 cells; assay: Cell viability assessment of SKOV3; assay type: cell-based
BT549 = assay: CellTiter-Glo cell viability dose response; assay type: cell-based; conditions: Homo sapiens, BT-549, 96 h
Protocol: (§1) Luminescence was measured on a Synergy2 microplate reader (BioTek) after 10 min of shaking. Dose-response experiments were plotted and IC50 values were calculated using nonlinear curve fitting with normalized response and variable slope by GraphPad Prism 8. Drug interaction of the two-drug combination using a constant ratio were processed and a Combination Index (CI) was calculated using CalcuSyn 2.0 (BIOSOFT). CI<1 indicates synergism, CI=1 indicates additive effect and CI>1 indicates antagonism.

DOV13 = assay: CellTiter-Glo cell viability dose response; assay type: cell-based; conditions: Homo sapiens, DOV13, 96 h
Protocol: as §1

HCC5032 = assay: CellTiter-Glo cell viability dose response; assay type: cell-based; conditions: 96 h
Protocol: as §1

HMEC16620 = assay: CellTiter-Glo cell viability dose response; assay type: cell-based; conditions: Homo sapiens, 96 h
Protocol: as §1

IGROV1 = assay: CellTiter-Glo cell viability dose response; assay type: cell-based; conditions: Homo sapiens, IGROV-1, 96 h
Protocol: as §1

MDA-2774 = assay: CellTiter-Glo cell viability dose response; assay type: cell-based; conditions: Homo sapiens, 96 h
Protocol: as §1

MDA-MD-231 = assay: CellTiter-Glo cell viability dose response; assay type: cell-based; conditions: Homo sapiens, 96 h
Protocol: as §1

NOE72 = assay: CellTiter-Glo cell viability dose response; assay type: cell-based; conditions: 96 h
Protocol: as §1

OAW28 = assay: CellTiter-Glo cell viability dose response; assay type: cell-based; conditions: Homo sapiens, OAW-28, 96 h
Protocol: as §1

OC316 = assay: CellTiter-Glo cell viability dose response; assay type: cell-based; conditions: Homo sapiens, 96 h
Protocol: as §1

OV90 = assay: CellTiter-Glo cell viability dose response; assay type: cell-based; conditions: Homo sapiens, OV-90, 96 h
Protocol: as §1

OVCAR3 = assay: CellTiter-Glo cell viability dose response; assay type: cell-based; conditions: Homo sapiens, OVCAR-3, 96 h
Protocol: as §1

OVCAR8 = assay: CellTiter-Glo cell viability dose response; assay type: cell-based; conditions: Homo sapiens, OVCAR-8, 96 h
Protocol: as §1

SKOv3 = assay: CellTiter-Glo cell viability dose response; assay type: cell-based; conditions: Homo sapiens, SK-OV-3, 96 h
Protocol: as §1

[3] = test system: SKOv3, OVCAR8, HCC5032, or MDA-MB-231 cells; assay: DNA damage: γ-H2AX staining and comet assay with olaparib; assay type: cell-based; conditions: SKOv3, OVCAR8, HCC5032, MDA-MB-231
Protocol: Cells were trypsinized and resuspended at 2×10^5/mL in cold PBS without Ca^2+ and Mg^2+. Cells were mixed with pre-warmed comet agarose at 1:10 (v/v) ratio. 10 uL of cell agarose mixture was plated onto comet slides pre-coated with 75 uL of agarose and chilled at 4° C. for 15 min to set. Cells were lysed in 25 mL of Lysis buffer at 4° C. for 2 hrs and washed with alkaline solution (pH 10). Comet slides were electrophoresed in cold alkaline solution at 20V for 15 min. Slides were rinsed with water and dried in 70% ethanol for 5 min. Slides were then stained with Vista Green DNA dye and viewed using an Olympus epifluorescence microscope with a FITC filter. Images were captured using a 20× objective. […] Experiments were run in triplicate and Olive Tail Moment was measured using CaspLab1.2.3β2 software (CaspLab.com). Olive Tail Moment=Tail DNA %×Tail Length. 50-200 Cells were measured for each treatment and experiments were repeated twice independently to ensure reproducibility.
Cells on 22×22 mm coverslips were fixed in 4% formaldehyde in PBS (Thermo Fisher, J19943-K2) and permeabilized with 0.1% Triton X-100 (Sigma, X100) in PBS for 15 min. Cells were blocked with 5% BSA in PBS for 30 min and then stained with antibody overnight at 4° C., followed by secondary antibody and DAPI for 1 hr. […] After 24-hrs incubation, cells were fixed in 4% formaldehyde in PBS. Cells were stained as described above. […] DNA damage visualized by γ-H2AX staining was evaluated by counting nuclear γ-H2AX puncta in each cell. […] After 8 hrs incubation, cells were fixed in 4% formaldehyde in PBS. Cells were stained as described above. Images were captured using an Olympus IX71 microscope and nuclear γ-H2AX puncta in each cells were counted using with Olympus CellSens Dimension software. HDAC5 (CST20458) and γ-H2AX (CST2577) antibodies were purchased from Cell Signaling Technology. Experiments were repeated twice independently to ensure reproducibility and 50-200 cells were counted for each treatment.

MEF2 promoter activity = assay: MEF2 luciferase reporter assay; assay type: cell-based; conditions: ovarian and breast cancer cell lines; time- and dose-dependent
Protocol: (§2) To identify the mechanism(s) by which SIK2 inhibition decreases DNA DBS repair, it was tested whether SIK2 inhibitors decrease the phosphorylation of class IIa HDACs, which control its nuclear cytoplasmic shuttling and consequently its association with DNA. […] Next, it was investigated whether SIK2 inhibitors increase nuclear localization of HDAC5. SIK2 inhibition increased nuclear localization of HDAC5 judged by increasing nuclear florescence intensity (FIG. 7B and FIG. 8A) and the nuclear fraction of HDAC5 expression (FIG. 8B). […] Therefore, it was hypothesized that SIK2 inhibition may block MEF transcription factor activity. […] Next, it was examined whether SIK2 regulation of MEF2 activity was HDAC4/5-dependent, increasing its binding to MEF2D protein. […] These observations are consistent with the hypothesis that SIK2 inhibition increases nuclear localization of HDAC4/5, blocking MEF2 transcription (FIG. 8E).

SKOv3 xenograft [4] = assay: SKOv3 subcutaneous xenograft, SIK2 inhibitor and olaparib; assay type: in vivo, mice; conditions: SKOv3 s.c.; oral, five times per week, 4 weeks
MDA-MB-231 xenograft = assay: MDA-MB-231 mammary fat pad xenograft, Compound B and olaparib; assay type: in vivo, mice; conditions: 50 mg/kg, oral, 5 weeks
Protocol: Forty female nu/nu mice were injected with 0.8×10^6 MDA-MB-231 cells into their fourth mammary fat pads. […] Tumors were measured every week as noted above (SKOv3 xenograft models).

SKOv3 cells = conditions: RNA-seq
A2780-CP20 = assay: Cell viability, cisplatin-resistant sub-line; assay type: cell-based; conditions: 96 h
Protocol: (§3) Cisplatin-resistant A2780-CP20 and cisplatin-sensitive A27801 PAR sub-lines were plated at a density of 2000/well in 96-well plates, then treated with different concentrations of carboplatin for 96 h as indicated. Cell viability was measured with a bioluminescence assay and the IC50 was calculated. […] (C, D).
(§4) Cells were seeded in 6 replicates in black-walled and clear-bottomed 96-well plates and incubated overnight. […] The CellTiter-Glo luminescent cell viability assay (Promega) was used to evaluate the effect of treatment on cancer growth. This experiment was performed several times to optimize the concentration. […] GraphPad Prism 8 was used to generate growth curves and calculated IC50. CalcuSyn was used to evaluate additive or synergistic interactions, a combination Index (CI value).
(§5) Platinum resistance is commonly seen in ovarian cancer patients with recurrent disease. There is currently no standard chemotherapy for platinum-resistant recurrence. Targeting DNA damage and repair is an attractive therapeutic approach in platinum-resistant ovarian cancer.

A2780-PAR = assay: Cell viability, cisplatin-sensitive sub-line; assay type: cell-based; conditions: 96 h
Protocol: as §3, §4, §5

[5] = test system: HDAC4 (Ser246)/HDAC5 (Ser256)/HDAC7 (Ser155); assay: Western analysis of HDAC4/5/7 phosphorylation; assay type: cell-based; conditions: 4 μM, 24 hrs; nearly all the cell lines tested
Protocol: as §2
Cells were incubated with and without treatment for the intervals indicated and then cells were incubated in lysis buffer (50 mM Hepes, pH 7.0, 150 mM NaCl, 1.5 mM MgCl2, 1 mM EGTA, 10, 10% glycerol, 1% Triton X-100, 50 mM NaF, 1 mM Na3VO4 1 mM PMSF, 10 μg/mL leupeptin and10 μg/mL aprotinin) on ice for 30 min. […] The protein concentration was assessed using a bicinchoninic acid (BCA) protein assay (Thermo Scientific, 23228). […]

SMILES	tumor growth (tumor volume) (SKOv3 xenograft [1])	pIC50 (BT549)	pIC50 (DOV13)	pIC50 (HCC5032)	pIC50 (HMEC16620)	pIC50 (IGROV1)	pIC50 (MDA-2774)	pIC50 (MDA-MD-231)	pIC50 (NOE72)	pIC50 (OAW28)	pIC50 (OC316)	pIC50 (OV90)	pIC50 (OVCAR3)	pIC50 (OVCAR8)	pIC50 (SKOv3)	levels of γ-H2AX and tailed DNA [3]	other results
CC(=O)O[C@H]1C(=O)[C@@]2(C)[C@H]([C@H](OC(=O)c3ccccc3)[C@]3(O)C[C@H](OC(=O)[C@H](O)[C@@H](NC(=O)c4ccccc4)c4ccccc4)C(C)=C1C3(C)C)[C@]1(OC(C)=O)CO[C@@H]1C[C@@H]2O [Paclitaxel, paclitaxel]	significantly inhibited tumor growth																pIC50 ([2]; Homo sapiens, SK-OV-3, SK-OV-3, Table 7, paclitaxel combinations): 6.90; pIC50 ([2]; Homo sapiens, SK-OV-3, SKOV3, Table 5, FIG. 25): 7.41; pIC50 ([2]; Homo sapiens, SK-OV-3, SKOV3, Table 6, FIG. 26): 6.90; Test/Control (%) at drug Concentration [μM] (MAXF Hs 578T; Table 14, 1.0E+00 μM): 38%; Test/Control (%) at drug Concentration [μM] (MAXF Hs 578T; Table 14, 1.0E−01 μM): 44%; Test/Control (%) at drug Concentration [μM] (MAXF Hs 578T; Table 14, 1.0E−02 μM): 89%; Test/Control (%) at drug Concentration [μM] (MAXF Hs 578T; Table 14, 3.2E−01 μM): 42%; Test/Control (%) at drug Concentration [μM] (MAXF Hs 578T; Table 14, 3.2E−02 μM): 52%; Test/Control (%) at drug Concentration [μM] (MAXF MDA-MB-231; Table 14, 1.0E+00 μM): 10%; Test/Control (%) at drug Concentration [μM] (MAXF MDA-MB-231; Table 14, 1.0E−01 μM): 17%; Test/Control (%) at drug Concentration [μM] (MAXF MDA-MB-231; Table 14, 1.0E−02 μM): 45%; Test/Control (%) at drug Concentration [μM] (MAXF MDA-MB-231; Table 14, 1.0E−03 μM): 110%; Test/Control (%) at drug Concentration [μM] (MAXF MDA-MB-231; Table 14, 3.2E−01 μM): 14%; Test/Control (%) at drug Concentration [μM] (MAXF MDA-MB-231; Table 14, 3.2E−02 μM): 24%
O=C(c1cc(Cc2n[nH]c(=O)c3ccccc23)ccc1F)N1CCN(C(=O)C2CC2)CC1 [Olaparib, olaparib]		4.86	4.49	4.84	5.92	5.55	5.20	5.35	5.19	5.44	5.31	5.08	5.42	5.19	4.26	modestly increased	MEF2 promoter activity (MEF2 promoter activity): did not; tumor growth (SKOv3 xenograft [4]): significantly inhibited tumor growth; tumor burden / tumor volume (MDA-MB-231 xenograft): remained unchanged; numbers of transcripts up or down-regulated by ≥2-fold (SKOv3 cells): 3
N.N.[Cl][Pt][Cl] [Cisplatin, cisplatin]																	pIC50 ([2]; SK-OV-3, Table 9, cisplatin combinations): 4.77; pIC50 ([2]; SKOV3, Table 6, FIG. 26, top locked at 100): 4.77
N.N.O=C([O-])C1(C(=O)[O-])CCC1.[Pt+2] [carboplatin]	significantly inhibited tumor growth																pIC50 (A2780-CP20): 4.46; pIC50 (A2780-PAR): 5.96
COc1c(F)cc(F)cc1-c1c[nH]c2ncc(-c3cnn(C4CCNCC4)c3)cc12 [Compound A, 3-(3,5-difluoro-2-methoxyphenyl)-5-(1-(piperidin-4-yl)-1H-pyrazol-4-yl)-1H-pyrrolo[2,3-b]pyridine]		5.69	5.55	5.65	5.44	5.96	5.97	5.63	5.24	5.77	5.90	5.41	5.55	5.86	5.91	modestly increased	phosphorylation of HDAC4/HDAC5/HDAC7 [5]: significantly decreased
